Key:
TIMP-1 mRNA = TIMP-1 mRNA expression by cultured HSC-T6 cells (Northern blot); assay type: cell-based, rat; conditions: TGFβ1 0,1 ng/ml, mean ±SEM
Description: (§1) The inventors used an established rat HSC cell line, named HSC-T6.
TIMP-1 increases fibrosis deposition by inhibiting its degradation by matrix metalloproteinases. The inventors observed in example 1 that noradrenergic antagonism in vivo led to a drastic decrease in liver TIMP-1 mRNA expression. They have further measured the effect of norepinephrin on TIMP-1 mRNA expression by cultured HSC-T6 cells. Total RNA was purified from cells exposed for 3, 6, or 24 hours to 100 nM norepinephrin. The RNAs were analyzed by Northern blot with a probe specific for rat TIMP-1. The blots were subsequently dehybridized and rehybridized with a probe to rat glyceraldehyde 3-phosphate dehydrogenase to ensure proper loading and transfer. TIMP-1/GADPH ratios were calculated and the results are shown respective to control values without norepinephrin.
Results are expressed as TIMP-1/GAPDH ratios relative to control values (mean ±SEM)

[1] = tested on: CCl4-induced liver fibrosis; assay: CCl4-induced liver fibrosis in rats, fibrosis area by Picro Sirius red image analysis; assay type: in vivo, rat; conditions: 2 weeks
Description: All experiments were carried out using accepted ethical guidelines. Male Wistar rats (Charles River, St Aubin-les-Elbeuf, France) weighing 200-250 g were used in this study. The animals had free access to food and drinking water. Fibrosis was induced by giving CCl4 (Sigma, St Quentin-Fallavier, France) mixed with olive oil (1vol: 5vol.) at 0.375 ml/kg body weight by gavage, three times a week, on Monday, Wednesday and Friday. Control animals for CCl4 received only olive oil.
Sympathetic chemical denervation was performed with OHDA (Sigma). OHDA was freshly prepared in saline containing 0.4% (w/v) ascorbic acid (Sigma). OHDA was administered intraperitoneally, twice a week on 2 consecutive days (Monday and Tuesday) at the dose of 25 mg/kg body weight. The first injection was given 4 to 6 hours before the first administration of CCl4. Control animals for OHDA received only the solvent.
Thus, 4 groups including each 6 animals could be distinguished. Group I: olive oil and saline alone; group II: olive oil and OHDA alone; group III: CCl4 with saline; group IV: CCl4 with OHDA. These animals were treated for 2 weeks. In another series of experiments, animals were similarly treated for 6 weeks. In that case, both control groups included only 3 animals.
Finally, other animals were treated with the specific α1-adrenergic receptor antagonist prazosin (Sigma), given in drinking water daily at a dose of 50 mg/l during 2 weeks. Group V animals received CCl4 alone, while group VI received CCl4 with prazosin. Both groups included 6 animals.
At the designated time points, the animals were sacrificed. Liver samples were taken from several lobes and either snap frozen in liquid nitrogen, cryopreserved in OCT compound (Sakura, Torrance, Calif.) and snap-frozen in liquid nitrogen-cooled isopentane, or fixed in buffered formalin.
This was done on formalin-fixed, paraffin-embedded sections stained with Picro Sirius red, using image analysis. All samples from a series of experiments were stained simultaneously. Quantitative data were obtained using a computerized image analysis system (Biocom 500, Les Ulis, France) including a personal computer (DESK PRO, Compaq, Houston, Tex.), a CCD video camera (Sony, Japan) and a Zeiss microscope (Jena, Germany). Sampling corresponded to 3 sections from 3 different lobes. The analysis was performed on an average of 50 fields per section using the ×4 objective. The whole surface of the sections was used for analysis with the exception of large centrolobular veins (diameter ≧150 μm) and large portal tracts. Fibrosis deposition was expressed as a percentage of stained areas on the total measured area.
Interassay variation was calculated in preliminary experiments and found to be 1.4%. When the percentage of reduction in areas of fibrosis consecutive to treatments was calculated, control values were first substracted.

type I collagen mRNA = assay: Liver type I collagen transcripts (quantitative RT-PCR, in situ hybridization); assay type: in vivo, rat; conditions: CCl4 with prazosin, 2 weeks
Description: In situ hybridization was performed on frozen sections according to a protocol described earlier, using [α^33P]UTP labeled riboprobes (Faouzi et al., 1999). The probe used was a 900 bp fragment of the rat α2(I) collagen cDNA, (Genovese et aL, 1984). The cDNA was subcloned into the pGEM5Z f(+) vector. Antisense and sense probes were generated by in vitro transcription. Their size was reduced to ˜250 nt by alkaline hydrolysis.
Total RNA was prepared from liver samples by the method of Chomczynski and Sacchi (1987), modified as described by Puissant and Houdebine (1990).
Type I collagen specific transcripts were quantified by a technique of quantitative RT-PCR, that has previously been described in detail (Bieche et al., 2000). Each sample was normalized on the basis of its expression of the RPLPO gene (also known as 36B4, encoding human acidic ribosomal phosphoprotein P0).

HSC-T6 = assay: Hepatic stellate cell proliferation assay (tetrazolium dye reduction); assay type: cell-based, rat
Description: FIG. 3: Effect of norepinephrin on hepatic stellate cell (HSC) proliferation. Cells were exposed to increasing concentrations of norepinephrin for 2 days. Cell number was evaluated through the measurement of the reduction of the dye 3-(4,5-dimethylthiazol-2yl)-2,5 diphenyltetrazolium.
FIG. 4: Effect of prazosin on hepatic stellate cell proliferation induced by norepinephrin Cells were exposed to increasing concentrations of prazosin, either alone (open symbols), or in the presence of 100 nM norepinephrin (closed symbols). Cell number was evaluated through the measurement of the reduction of the dye 3-(4,5-dimethylthiazol-2yl)-2,5 diphenyltetrazolium. The marginal proliferation index was calculated as: (ODexperimental sample—ODday 0)/(ODcontrol—ODday 0), where OD is the optical density measured at the end of the experiment.
as §1
Cells were exposed to increasing concentrations of norepinephrin for 2 days. In some experiments, cells were also exposed to increasing concentrations of prazosin. Cell number was evaluated through the measurement of the reduction of the dye 3-(4,5-dimethylthiazol-2yl)-2,5 diphenyltetrazolium.

[2] = tested on: CCl4-induced hepatocyte necrosis; assay: Acute toxicity of CCl4: liver function tests and area of necrosis; conditions: co-treatment with CCl4 vs CCl4 alone
Description: Routine liver function blood tests (bilirubin, alkaline phosphatase and transaminases) were performed on an automated analyzer.
Thus, groups of animals treated with 2 administrations of CCl4 with or without 2 injections of OHDA were sacrificed 24 hours after the second CCl4 treatment and evaluated for acute toxicity of CCl4 by serum tests and measurement of the area of necrosis on liver sections.
The percentage of necrosis area was determined on hematoxylin and eosin stained sections by image analysis.

Row | Molecule | TIMP-1/GAPDH ratio relative to control (TIMP-1 mRNA; 3 h) | TIMP-1/GAPDH ratio relative to control (TIMP-1 mRNA; 6 h) | TIMP-1/GAPDH ratio relative to control (TIMP-1 mRNA; 24 h) | fibrosis area (histomorphometry) ([1]; CCl4 with prazosin 50 mg/l in drinking water (group VI), CCl4 alone 2.35±0.41%) | decrease in fibrosis area ([1]; prazosin with CCl4 vs CCl4 alone) | type I collagen transcripts by in situ hybridization (type I collagen mRNA) | effect on mitogenic effect of norepinephrin on HSC-T6 (HSC-T6; in the presence of 100 nM norepinephrin, 3 independent experiments in quadruplicate) | effect on HSC-T6 proliferation alone (HSC-T6; without norepinephrin) | effect on the acute toxicity of CCl4 (biological tests and necrosis area) [2]
1 | TGFβ1: transforming growth factor β1, a major agonist of liver fibrogenesis | 1,56 ± 0,20 | 1,38 ± 0,11 | 1,33 ± 0,09 |  |  |  |  |  | 
2 | COc1cc2nc(N3CCN(C(=O)c4ccco4)CC3)nc(N)c2cc1OC [prazosin, 1-(4-amino-6,7-dimethoxy-2-quinazolinyl)-4-(2-furanylcarbonyl) piperazine] |  |  |  | 0.89±0.21% | 83% | large decrease in transcripts | abolished | no effect | did not decrease

Reference: patent US6649615B2, “Method for inhibiting fibrogenesis” (Institute National de la Sante et de la Recherche Medicale …, priority 2002, dated 2003)
